In US10857196B2, “Bicyclic peptide ligands and uses thereof” (BicycleTx Limited, priority 2017, dated 2020):
Numbered stars: 1 amine (or outer) side, 2 acyl side, 3 side chain; on linkers, the order of the positions; unused ones are H or OH. Bridge positions count the residues as written; N and C are the ends. Square brackets hold non-standard residues; d marks the D form. Peptide text beside a SMILES is read from it. X8 = O=C(C[*:1])NCCn1c(=O)n(CCNC(=O)C[*:2])c(=O)n(CCNC(=O)C[*:3])c1=O; X7 = O=S(=O)(CC[*:1])N1CCN(S(=O)(=O)CC[*:2])CCN(S(=O)(=O)CC[*:3])CC1; X6 = O=S(=O)(CC[*:1])c1cc(S(=O)(=O)CC[*:2])cc(S(=O)(=O)CC[*:3])c1; X1 = O=C(CC[*:1])N1CC23CN(C(=O)CC[*:2])CC2(C1)CN(C(=O)CC[*:3])C3; X9 = O=C(C[*:1])N1CCOCCN(C(=O)C[*:2])CCOCCN(C(=O)C[*:3])CCOCC1; X3 = O=C(C[*:1])N1CC23CN(C(=O)C[*:2])CC2(C1)CN(C(=O)C[*:3])C3; X2 = O=C(CC[*:1])N1CCN(C(=O)CC[*:2])CCN(C(=O)CC[*:3])CC1; X5 = O=C(C[*:1])N1CCN(C(=O)C[*:2])CCN(C(=O)C[*:3])CC1; X4 = O=C(C[*:1])NCCN(CCNC(=O)C[*:2])CCNC(=O)C[*:3]; 1Nal = N[C@@H](Cc1cccc2ccccc12)C(=O)O; Tle = CC(C)(C)[C@H](N)C(=O)O

Experiments:
CAIX = CAIX (Homo sapiens, UniProt Q16790); experiment: CAIX competition binding assay (competition fluorescence polarization); conditions: fluorescent ligand A-(CAECWIDGWVPC)-A-Sar6-K(Fl)
Experimental: CAIX Competition Binding Assay Affinity of the peptides of the invention for human CAIX (Ki) was determined using a competition fluorescence polarization assay analogous to that described in Dubois et al. (2011) Radiotherapy and Oncology 99(3), 424-43 using A-(CAECWIDGWVPC)-A-Sar6-K(Fl) (SEQ ID NO: 5) as the fluorescent ligand.
A Ki value designated “A” denotes a Ki of ≤50 nM; a Ki value designated “B” denotes a K, of >50 nM and ≤100 nM; a Ki value designated “C” denotes a Ki of >100 nM and ≤1,000 nM; and a Ki value designated “D” denotes a Ki of >1,000 nM.

MT1-MMP hemopexin domain = MT1-MMP hemopexin domain (Homo sapiens, UniProt P50281); experiment: Direct binding fluorescence polarization (anisotropy) assay
Experimental: Direct Binding Fluorescence Polarization or Anisotropy Assays are performed by titrating a constant concentration of fluorescent tracer (here, the fluoresceinated bicyclic peptide to be studied) with its binding partner (here, the MT1-MMP hemopexin domain). As the concentration of binding partner increases during the titration, the polarization signal changes in proportion to the fraction of bound and unbound material. This allows determination of […] (Kd) quantitatively. Assay data can be fit using standard ligand binding equations.
Typically, concentrations of the tracer are ideally well below the Kd of the tracer:titrant pair, and concentrations chosen are usually at ˜1 nM or less. The titrant (binding partner) concentration is varied from 0.1 nM up to typically 5 μM. The range is chosen such that the maximum change in fluorescent polarization can be observed. Buffers employed are phosphate buffered saline in the presence of 0.01% Tween. Experiments were run in black 384 well low-bind/low volume plates (Corning 3820), and the fluorescent polarization signal was measured using a BMG Pherastar FS plate reader. Fluorescent tracers referred to in the text are bicyclic peptides that have been fluoresceinated using 5,6-carboxyfluorescein. Fluoresceination may be performed on the N-terminal amino group of the peptide, which is separated from the bicycle core sequence by a sarcosine spacer (usually Sar5). This can be done during Fmoc solid phase synthesis or post-synthetically (after cyclization with the molecular scaffold reagent and purification) if the N-terminal amino group is unique to the peptide. Fluoresceination can also be performed on the C-terminus, usually on a Lysine introduced as the first C-terminal residue, which is then separated from the bicycle core sequence by a sarcosine spacer (usually Sar6). Thus, N-terminal tracers can have a molecular format described as Fluo-Gly-Sar5-A(BicycleCoreSequence), and (BicycleCoreSequence)-A-Sar6-K(Fluo) for a C-terminally fluoresceinated construct.
Fluorescent tracers used in the Examples are A-(17-69)-A-Sar6-K(Fluo), A-(17-69-07)-A-Sar6-K(Fluo), and A-(17-69-12)-A-Sar6-K(Fluo). Due to the acidic nature of the 17-69 fluorescent peptides, they were typically prepared as concentrated DMSO stocks, from which dilution were prepared in 100 mM Tris pH 8 buffer.
Results from the direct binding fluorescence polarization (anisotropy) assays is depicted in Table 3, below. A K, value designated “A” denotes a Ki of ≤50 nM; a Ki value designated “B” denotes a Ki of >50 nM and ≤100 nM; a Ki value designated “C” denotes a Ki of >100 nM and ≤1,000 nM; and a Ki value designated “D” denotes a Ki of >1,000 nM.

SMILES	Ki (CAIX)	Ki (MT1-MMP hemopexin domain)
CC(C)[C@@H]1NC(=O)[C@H](Cc2c[nH]c3ccccc23)NC(=O)[C@@H]2CSCC(=O)NCCn3c(=O)n(c(=O)n(c3=O)CCNC(=O)CSC[C@H](NC(=O)[C@H](C)NC(=O)CN(C)C(=O)CN(C)C(=O)CN(C)C(=O)CN(C)C(=O)CN(C)C(=O)CN(C)C(=O)CN(C)C(=O)CN(C)C(=O)CN(C)C(=O)CN(C)C(=O)CCN)C(=O)N[C@@H]([C@@H](C)O)C(=O)N[C@@H](CCC(=O)O)C(=O)N2)CCNC(=O)CSC[C@@H](C(=O)O)NC(=O)[C@@H]2CCCN2C(=O)[C@H](C(C)C)NC(=O)[C@H](Cc2c[nH]c3ccccc23)NC(=O)CNC(=O)[C@H](CC(=O)O)NC1=O [Compound I-19]	0.05 to 0.1 µM	
CC(C)[C@@H]1NC(=O)[C@H](Cc2c[nH]c3ccccc23)NC(=O)[C@@H]2CSCC(=O)N3CCN(CCN(CC3)C(=O)CSC[C@H](NC(=O)[C@H](C)NC(=O)CN(C)C(=O)CN(C)C(=O)CN(C)C(=O)CN(C)C(=O)CN(C)C(=O)CN(C)C(=O)CN(C)C(=O)CN(C)C(=O)CN(C)C(=O)CN(C)C(=O)CCN)C(=O)N[C@@H]([C@@H](C)O)C(=O)N[C@@H](CCC(=O)O)C(=O)N2)C(=O)CSC[C@@H](C(N)=O)NC(=O)[C@@H]2CCCN2C(=O)[C@H](C(C)C)NC(=O)[C@H](Cc2c[nH]c3ccccc23)NC(=O)CNC(=O)[C@H](CC(=O)O)NC1=O [Compound I-21]	0.1 to 1 µM	
CC(C)[C@@H]1NC(=O)[C@H](Cc2c[nH]c3ccccc23)NC(=O)[C@@H]2CSCCC(=O)N3CCN(CCN(CC3)C(=O)CCSC[C@H](NC(=O)[C@H](C)NC(=O)CN(C)C(=O)CN(C)C(=O)CN(C)C(=O)CN(C)C(=O)CN(C)C(=O)CN(C)C(=O)CN(C)C(=O)CN(C)C(=O)CN(C)C(=O)CN(C)C(=O)CCN)C(=O)N[C@@H]([C@@H](C)O)C(=O)N[C@@H](CCC(=O)O)C(=O)N2)C(=O)CCSC[C@@H](C(N)=O)NC(=O)[C@@H]2CCCN2C(=O)[C@H](C(C)C)NC(=O)[C@H](Cc2c[nH]c3ccccc23)NC(=O)CNC(=O)[C@H](CC(=O)O)NC1=O [Compound I-22]	0.1 to 1 µM	
C[C@H](N)C(=O)N[C@H]1CSCC(=O)N2CCOCCN3CCOCCN(CCOCC2)C(=O)CSC[C@H](NC(=O)[C@@H](C)NC(=O)[C@H](Cc2cccc4ccccc24)NC(=O)[C@H](CCC(=O)O)NC(=O)[C@H](CC(N)=O)NC(=O)[C@@H](C)NC1=O)C(=O)N[C@@H](CCC(=O)O)C(=O)N[C@@H](CC(=O)O)C(=O)N[C@@H](Cc1ccccc1)C(=O)N[C@@H](Cc1ccc(O)cc1)C(=O)N[C@@H](CC(=O)O)C(=O)N[C@@H](C(C)(C)C)C(=O)N[C@H](C(N)=O)CSCC3=O [Compound I-58] (H-AC[dA]NE[1Nal][dA]CEDFYD[Tle]C-NH2; linker 2-8-15 via X9)		0.05 to 0.1 µM
C[C@H](N)C(=O)N[C@H]1CSCCS(=O)(=O)N2CCN3CCN(CC2)S(=O)(=O)CCSC[C@@H](NC(=O)[C@@H](C)NC(=O)[C@H](Cc2cccc4ccccc24)NC(=O)[C@H](CCC(=O)O)NC(=O)[C@H](CC(N)=O)NC(=O)[C@@H](C)NC1=O)C(=O)N[C@@H](CCC(=O)O)C(=O)N[C@@H](CC(=O)O)C(=O)N[C@@H](Cc1ccccc1)C(=O)N[C@@H](Cc1ccc(O)cc1)C(=O)N[C@@H](CC(=O)O)C(=O)N[C@@H](C(C)(C)C)C(=O)N[C@H](C(N)=O)CSCCS3(=O)=O [Compound I-59] (H-AC[dA]NE[1Nal][dA][dC]EDFYD[Tle]C-NH2; linker 2-8-15 via X7)		> 1 µM

Continued, values first:

Ki (CAIX)	Ki (MT1-MMP hemopexin domain)	SMILES
	0.1 to 1 µM	C[C@H](N)C(=O)N[C@H]1CSCC(=O)NCCn2c(=O)n3c(=O)n(c2=O)CCNC(=O)CSC[C@H](NC(=O)[C@@H](C)NC(=O)[C@H](Cc2cccc4ccccc24)NC(=O)[C@H](CCC(=O)O)NC(=O)[C@H](CC(N)=O)NC(=O)[C@@H](C)NC1=O)C(=O)N[C@@H](CCC(=O)O)C(=O)N[C@@H](CC(=O)O)C(=O)N[C@@H](Cc1ccccc1)C(=O)N[C@@H](Cc1ccc(O)cc1)C(=O)N[C@@H](CC(=O)O)C(=O)N[C@@H](C(C)(C)C)C(=O)N[C@H](C(N)=O)CSCC(=O)NCC3 [Compound I-52] (H-AC[dA]NE[1Nal][dA]CEDFYD[Tle]C-NH2; linker 2-8-15 via X8)
	≤ 0.05 µM	C[C@H](N)C(=O)N[C@H]1CSCC(=O)N2CCN3CCN(CC2)C(=O)CSC[C@H](NC(=O)[C@@H](C)NC(=O)[C@H](Cc2cccc4ccccc24)NC(=O)[C@H](CCC(=O)O)NC(=O)[C@H](CC(N)=O)NC(=O)[C@@H](C)NC1=O)C(=O)N[C@@H](CCC(=O)O)C(=O)N[C@@H](CC(=O)O)C(=O)N[C@@H](Cc1ccccc1)C(=O)N[C@@H](Cc1ccc(O)cc1)C(=O)N[C@@H](CC(=O)O)C(=O)N[C@@H](C(C)(C)C)C(=O)N[C@H](C(N)=O)CSCC3=O [Compound I-54] (H-AC[dA]NE[1Nal][dA]CEDFYD[Tle]C-NH2; linker 2-8-15 via X5)
	0.05 to 0.1 µM	C[C@H](N)C(=O)N[C@H]1CSCCC(=O)N2CCN3CCN(CC2)C(=O)CCSC[C@H](NC(=O)[C@@H](C)NC(=O)[C@H](Cc2cccc4ccccc24)NC(=O)[C@H](CCC(=O)O)NC(=O)[C@H](CC(N)=O)NC(=O)[C@@H](C)NC1=O)C(=O)N[C@@H](CCC(=O)O)C(=O)N[C@@H](CC(=O)O)C(=O)N[C@@H](Cc1ccccc1)C(=O)N[C@@H](Cc1ccc(O)cc1)C(=O)N[C@@H](CC(=O)O)C(=O)N[C@@H](C(C)(C)C)C(=O)N[C@H](C(N)=O)CSCCC3=O [Compound I-55] (H-AC[dA]NE[1Nal][dA]CEDFYD[Tle]C-NH2; linker 2-8-15 via X2)
	0.1 to 1 µM	C[C@H](N)C(=O)N[C@H]1CSCCC(=O)N2CC34CN5CC3(C2)CN(C4)C(=O)CCSC[C@H](NC(=O)[C@@H](C)NC(=O)[C@H](Cc2cccc3ccccc23)NC(=O)[C@H](CCC(=O)O)NC(=O)[C@H](CC(N)=O)NC(=O)[C@@H](C)NC1=O)C(=O)N[C@@H](CCC(=O)O)C(=O)N[C@@H](CC(=O)O)C(=O)N[C@@H](Cc1ccccc1)C(=O)N[C@@H](Cc1ccc(O)cc1)C(=O)N[C@@H](CC(=O)O)C(=O)N[C@@H](C(C)(C)C)C(=O)N[C@H](C(N)=O)CSCCC5=O [Compound I-56] (H-AC[dA]NE[1Nal][dA]CEDFYD[Tle]C-NH2; linker 2-8-15 via X1)
	0.1 to 1 µM	C[C@H](N)C(=O)N[C@H]1CSCC(=O)N2CC34CN5CC3(C2)CN(C4)C(=O)CSC[C@H](NC(=O)[C@@H](C)NC(=O)[C@H](Cc2cccc3ccccc23)NC(=O)[C@H](CCC(=O)O)NC(=O)[C@H](CC(N)=O)NC(=O)[C@@H](C)NC1=O)C(=O)N[C@@H](CCC(=O)O)C(=O)N[C@@H](CC(=O)O)C(=O)N[C@@H](Cc1ccccc1)C(=O)N[C@@H](Cc1ccc(O)cc1)C(=O)N[C@@H](CC(=O)O)C(=O)N[C@@H](C(C)(C)C)C(=O)N[C@H](C(N)=O)CSCC5=O [Compound I-57] (H-AC[dA]NE[1Nal][dA]CEDFYD[Tle]C-NH2; linker 2-8-15 via X3)
	0.1 to 1 µM	C[C@H](N)C(=O)N[C@H]1CSCC(=O)NCCN2CCNC(=O)CSC[C@@H](C(=O)O)NC(=O)[C@H](C(C)(C)C)NC(=O)[C@H](CC(=O)O)NC(=O)[C@H](Cc3ccc(O)cc3)NC(=O)[C@H](Cc3ccccc3)NC(=O)[C@H](CC(=O)O)NC(=O)[C@H](CCC(=O)O)NC(=O)[C@H](CSCC(=O)NCC2)NC(=O)[C@@H](C)NC(=O)[C@H](Cc2cccc3ccccc23)NC(=O)[C@H](CCC(=O)O)NC(=O)[C@H](CC(N)=O)NC(=O)[C@@H](C)NC1=O [Compound I-60] (H-AC[dA]NE[1Nal][dA]CEDFYD[Tle]C-OH; linker 2-8-15 via X4)
	≤ 0.05 µM	C[C@H](N)C(=O)N[C@H]1CSCCS(=O)(=O)c2cc3cc(c2)S(=O)(=O)CCSC[C@@H](NC(=O)[C@@H](C)NC(=O)[C@H](Cc2cccc4ccccc24)NC(=O)[C@H](CCC(=O)O)NC(=O)[C@H](CC(N)=O)NC(=O)[C@@H](C)NC1=O)C(=O)N[C@@H](CCC(=O)O)C(=O)N[C@@H](CC(=O)O)C(=O)N[C@@H](Cc1ccccc1)C(=O)N[C@@H](Cc1ccc(O)cc1)C(=O)N[C@@H](CC(=O)O)C(=O)N[C@@H](C(C)(C)C)C(=O)N[C@H](C(N)=O)CSCCS3(=O)=O [Compound I-61] (H-AC[dA]NE[1Nal][dA][dC]EDFYD[Tle]C-NH2; linker 2-8-15 via X6)
